For one data set, the system named is acetylcholine. Kind of data set: Microdialysis: extracellular acetylcholine in the brain of freely moving rats. It is filed as in vivo, Sprague-Dawley rats. To be noted: rat, subcutaneously 2.5-10 mg/kg. The method, then:
The animals were administered 1-[2-(2,4-dimethylphenylsulfanyl)phenyl]-piparazine, HBr salt.
Male Sprague-Dawley rats, initially weighing 275-300 g, were used. The animals were housed under a 12-hr light/dark cycle under controlled conditions for regular in-door temperature (21±2° C.) and humidity (55±5%) with food and tap water available ad libitum.
Rats were anaesthetised with hypnorm/dormicum (2 ml/kg) and intracerebral guide cannulas (CMA/12) were stereotaxically implanted into the brain, aiming at positioning the dialysis probe tip in the ventral hippocampus (co-ordinates: 5.6 mm posterior to bregma, lateral −5.0 mm, 7.0 mm ventral to dura) or in the prefrontal cortex (co-ordinates: 3.2 mm anterior to bregma; lateral, 0.8 mm; 4.0 mm ventral to dura). […] The body temperature of the animals was monitored by rectal probe and maintained at 37° C. […]
The compound dissolved in 10% HPbetaCD and injected subcutaneously (2.5-10 mg/kg). Doses are expressed as mg salt/kg body weight. […]
Concentration of acetylcholine (ACh) in the dialysates was analysed by means of HPLC with electrochemical detection using a mobile phase consisting of 100 mM disodium hydrogenphosphate, 2.0 mM octane sulfonic acid, 0.5 mM tetramethyl-ammonium chloride and 0.005% MB (ESA), pH 8.0. […] The latter was detected electrochemical by using a platinum electrode (Analytical cell: ESA, model 5040). […]

In the next data set the test system is Sprague-Dawley rats. The data set is described as follows: Contextual fear conditioning in rats. As to conditions: for time spent freezing during the retention test: 24 h after acquisition. It is filed as in vivo. An excerpt:
The compound administered in the present experiment was 1-[2-(2,4-dimethylphenylsulfanyl)phenyl]piperazine HBr salt.
We have studied the effect of the compound on acquisition, consolidation and recall of contextual fear conditioning in rats. In the fear conditioning paradigm animals learn to associate a neutral environment (context, the training chamber, CS) with an aversive experience (an electrical foot-shock, US). During re-exposure to the training chamber, animals express a freezing behaviour, which is taken as a direct measure of the fear-related memory [Pavlov J. Biol. Sci., 15, 177-182, 1980]. […] Neurosci., 106, 274-285, 1992].
Adult male Sprague-Dawley rats (weighing 250-300 g at time of training) from Charles River Laboratories, housed two per cage under a 12 h light/dark cycle, were used. Food and water were available ad libitum. Rats were used 1 week after arrival. The compound was dissolved in 10% HPbetaCD and injected subcutaneously. The drug was administered in a volume of 2.5 ml/kg.
Training and testing were conducted in a soundproof chamber (30×20×40 cm) housed in an isolated room and connected to a ventilation system. Illumination was provided by a white light (60 Watt). The floor of the chamber consisted of a metal grid attached to an electric shock generator. Prior to training and testing, the chamber was cleaned with a 70% ethanol solution. A video camera allowed for behavioral observations and recording of the training session for off-line analysis.
During the acquisition animals were allowed to freely explore the novel environment for a 1 min habituation period, which co-terminated with one inescapable foot-shock (unconditioned stimulus, US) through the electrifiable grid floor. […] Animals remained in the conditioning chamber for another 60 s after the US. Freezing behaviour was scored during the first 58 s (pre-shock acquisition; experimenter blinded to groups) to determine baseline-freezing responses to the context. At the end of the acquisition animals were gently removed and placed into their home cages. After 24 h the same animals were reintroduced into the training context (fear conditioning chamber) and a 2 min retention test was performed. During this period no foot shocks were applied. Freezing behaviour was scored during the whole test period with the experimenter blinded to groups and presented as percent of total test period.

The next data set in a line: physchem. As to conditions: water.
In data set [1] the target is Rat serotonin transporter (Rattus norvegicus, UniProt P31652). The data set is described as follows: Rat serotonin transporter, blockade of 5-HT uptake. It is filed as biochemical.
The next data set has as its target T1, Human 5-HT3A receptor (Homo sapiens, UniProt P46098).
T1 sequence (P46098 24-478): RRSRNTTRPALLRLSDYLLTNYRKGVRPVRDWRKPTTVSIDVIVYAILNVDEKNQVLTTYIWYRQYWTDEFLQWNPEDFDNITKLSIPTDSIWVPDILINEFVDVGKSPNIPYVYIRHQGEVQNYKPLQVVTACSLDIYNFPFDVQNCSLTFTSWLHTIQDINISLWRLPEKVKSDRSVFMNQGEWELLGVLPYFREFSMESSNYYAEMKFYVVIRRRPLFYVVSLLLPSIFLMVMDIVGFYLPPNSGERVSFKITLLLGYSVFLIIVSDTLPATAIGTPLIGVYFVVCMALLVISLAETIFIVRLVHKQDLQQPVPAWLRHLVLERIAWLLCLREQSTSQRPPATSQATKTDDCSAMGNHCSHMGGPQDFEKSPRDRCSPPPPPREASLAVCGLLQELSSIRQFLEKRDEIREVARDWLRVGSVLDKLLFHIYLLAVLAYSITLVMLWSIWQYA
Kind of data set: Human 5-HT3A receptor functional assay (cloned into oocytes). To be noted: at higher concentration, read-out: ED50 (agonistic activity). It is filed as cell-based. An excerpt: As shown in example 1, the compounds of the present invention are potent inhibitors of the human serotonin transporter, i.e. they inhibit serotonin reuptake. Moreover, the compounds are potent antagonists at the mouse, rat, guinea pig and canine 5-HT3 receptor. […] Thus, at low concentrations compounds of the present invention display a marked antagonism at the human 5-HT3 receptor as observed on the 5-HT3 receptor from other species.

A short description of data set [2]: Hygroscopicity (water absorption versus relative humidity). It is filed as physicochemical.

Experimental findings from patent US11458134B2, “1-[2-(2,4-dimeihylphenylsulfanyl)-phenyl]piperazine as a compound with combined serotonin reuptake, 5-HT3 and 5-HT1A activity for the treatment of cognitive impairment” (H. Lundbeck A/S, priority 2006, dated 2022) are described below.

A word on the solubility: it is the dissolved amount per volume that the medium holds. Read a low solubility as little dissolved substance. For orientation: IC50 means the midpoint of a concentration-inhibition curve.

In brackets after ≈: the same amount, converted by molar mass. Where two headings read alike, the source gives them in different places.

Chain of Rat serotonin transporter (P31652 whole entry): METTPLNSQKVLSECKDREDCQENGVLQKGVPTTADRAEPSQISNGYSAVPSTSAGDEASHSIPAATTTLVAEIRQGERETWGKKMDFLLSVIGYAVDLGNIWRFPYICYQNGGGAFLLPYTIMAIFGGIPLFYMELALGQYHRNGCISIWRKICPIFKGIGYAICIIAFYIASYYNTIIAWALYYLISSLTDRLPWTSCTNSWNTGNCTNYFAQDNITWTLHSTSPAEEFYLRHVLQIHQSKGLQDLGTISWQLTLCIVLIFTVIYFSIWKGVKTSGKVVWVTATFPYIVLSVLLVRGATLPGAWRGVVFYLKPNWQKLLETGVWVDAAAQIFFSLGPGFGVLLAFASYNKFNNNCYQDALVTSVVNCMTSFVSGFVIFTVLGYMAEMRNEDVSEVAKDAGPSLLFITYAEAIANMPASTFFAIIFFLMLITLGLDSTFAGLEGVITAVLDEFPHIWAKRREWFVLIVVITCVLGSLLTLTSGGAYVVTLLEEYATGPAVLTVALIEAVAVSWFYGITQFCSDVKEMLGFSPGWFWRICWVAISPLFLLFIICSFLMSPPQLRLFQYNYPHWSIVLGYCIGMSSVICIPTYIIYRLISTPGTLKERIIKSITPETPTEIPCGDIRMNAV

As to `Br.Cc1ccc(Sc2ccccc2N2CCNCC2)c(C)c1` [1-[2-(2,4-dimethylphenylsulfanyl)phenyl]piperazine HBr salt], in the data set on acetylcholine (FIG. 19a), the “extra-cellular levels of ACh in prefrontal cortex” value is “significantly increased”. The “extra-cellular levels of ACh in ventral hippocampus” value with acetylcholine (FIG. 19b) was “significantly increased”. Besides, the “time spent freezing during the retention test” value with Sprague-Dawley rats (5 mg/kg s.c. 1 h prior to acquisition) was found to be 39.24±13.76%; in the data set on Sprague-Dawley rats (5 mg/kg s.c. after the acquisition session, p<0.05), 45.58±4.50%; in the data set on Sprague-Dawley rats (10 mg/kg s.c. 1 h prior to acquisition, p<0.01) it was 52.15±5.68%. Moreover, in the data set on Sprague-Dawley rats (5 mg/kg s.c. 1 h prior to the retention test, p<0.05), the “freezing behaviour during the memory test” value was 12.86±3.57%. Further, the “contextual memory” value with Sprague-Dawley rats (rats) is on record as “enhances contextual memory”. In addition, the “baseline freezing behaviour before the foot shock” value in the data set with Sprague-Dawley rats (rats, 1, 5 and 10 mg/kg s.c. 1 h prior to acquisition) is “does not affect”.
`Cc1ccc(Sc2ccccc2N2CCNCC2)c(C)c1.O=C(O)C(O)C(O)C(=O)O` [L-(+)-tartrate, 1-[2-(2,4-Dimethylphenylsulfanyl)-phenyl]piperazine (+)-tartaric acid] returned a solubility in “physchem” of about 400 µg/mL.
In “Solubility in water” (hydrobromide), `Br.Cc1ccc(Sc2ccccc2N2CCNCC2)c(C)c1` [beta form of the hydrobromide, 1-[2-(2,4-Dimethylphenylsulfanyl)-phenyl]piperazine hydrobromide] showed a solubility in water of 1200 µg/mL.
With `Cc1ccc(Sc2ccccc2N2CCNCC2)c(C)c1` [compound I, 1-[2-(2,4-dimethylphenylsulfanyl)-phenyl]piperazine], in data set [1], the IC50 was found to be 5.3 nM. Further, the EC50 on Human 5-HT3A receptor stood at 2100 nM.
For `Cc1ccc(Sc2ccccc2N2CCNCC2)c(C)c1` [crystalline base, 1-[2-(2,4-Dimethylphenylsulfanyl)-phenyl]piperazine], in data set [2], the “hygroscopicity” value is listed as “not hygroscopic”. Further, in “Solubility in water”, the solubility in water worked out at 100 µg/mL (≈ 335 µM).
On to `Br.CCOC(C)=O.Cc1ccc(Sc2ccccc2N2CCNCC2)c(C)c1` [ethyl acetate solvate, 1-[2-(2,4-Dimethylphenylsulfanyl)-phenyl]piperazine HBr EtOAc solvate], for which the “hygroscopicity” value in data set [2] is given as “hygroscopic”.
For the compound `Cc1ccc(Sc2ccccc2N2CCNCC2)c(C)c1.O=C(O)/C=C/C(=O)O` [fumarate, 1-[2-(2,4-Dimethyl-phenylsulfanyl)-phenyl]-piperazine fumarate], in “physchem”, the solubility turned out to be 400 µg/mL.
Consider `Br.Cc1ccc(Sc2ccccc2N2CCNCC2)c(C)c1` [gamma form of the hydrobromide, 1-[2-(2,4-Dimethylphenylsulfanyl)-phenyl]piperazine hydrobromide], for which the “water absorbed at 30% RH” value in data set [2] (30% RH at room temperature) is on record as “about 2%”.
In the case of `Br.Cc1ccc(Sc2ccccc2N2CCNCC2)c(C)c1` [hemi hydrate of the hydrobromide], the water content result in data set [2] (room temperature and 95% RH) is recorded as “about 3.7%”.
As to `Cc1ccc(Sc2ccccc2N2CCNCC2)c(C)c1.Cl` [hydrochloride monohydrate, 1-[2-(2,4-Dimethylphenylsulfanyl)-phenyl]piperazine HCl], the “hygroscopicity” value in data set [2] is “does not absorb further amount of water”. The same compound displayed a solubility in the data set “physchem” of about 2000 µg/mL.
For `Cc1ccc(Sc2ccccc2N2CCNCC2)c(C)c1.O=C(O)/C=C\C(=O)O` [maleate, 1-[2-(2,4-Dimethylphenylsulfanyl)-phenyl]piperazine Maleate], the solubility in “physchem” is about 1000 µg/mL.
For `CS(=O)(=O)O.Cc1ccc(Sc2ccccc2N2CCNCC2)c(C)c1` [mesylate, 1-[2-(2,4-Dimethylphenylsulfanyl)-phenyl]piperazine mesylate], in data set [2], the “hygroscopicity” value was “hygroscopic”. In “physchem”, this compound registered a solubility of over 45000 µg/mL.
Regarding `Cc1ccc(Sc2ccccc2N2CCNCC2)c(C)c1.O=[N+]([O-])O` [nitrate, 1-[2-(2,4-Dimethylphenylsulfanyl)-phenyl]piperazine nitrate], the solubility in “physchem” was about 800 µg/mL.
Turning to `Cc1ccc(Sc2ccccc2N2CCNCC2)c(C)c1.O=P(O)(O)O` [phosphate, 1-[2-(2,4-Dimethylphenylsulfanyl)-phenyl]piperazine phosphate], the solubility in the data set “physchem” was about 1000 µg/mL.
In the case of `Cc1ccc(Sc2ccccc2N2CCNCC2)c(C)c1.O=S(=O)(O)O` [sulphate, 1-[2-(2,4-Dimethylphenylsulfanyl)-phenyl]piperazine sulphate], the solubility in “physchem” was about 100 µg/mL.
